Test results from US20210230131A1, “POLYAMINO BIARYL COMPOUNDS AND THEIR USE” (INSERM (INSTITUT NATIONAL DE LA SANTÉ ET DE LA RECHERCHE …, priority 2018, published 2021).

Tests used:
[1] = system: CTFα; test: APP carboxy-terminal fragment αCTF by Western blot in SY5Y-APP695WT cells; assay type: cell-based, human; settings: CTFα increase compared to chloroquine ([CTF]compound/[CTF]CQ) at 3 μM; mean of at least three experiments
Description: (§1) Antibodies. Primary antibodies used in this study for western-blot analysis included a homemade rabbit antiserum against the last 17 amino acids of human APP protein sequence, named APP-Cter-C17 (1/5000 in TBS-M). Anti-β-actin (1/10 000 in TBS-M) was obtained from Sigma. Anti-LC3B (1/2000 in TBS-BSA) and anti-p62/SQSTM1 (1/2000 in TBS-M) antibodies were purchased from Cell Signaling Technology. Secondary antibodies (peroxidase-labeled goat anti-rabbit IgG, 1/5000 or peroxidase-labeled horse anti-mouse IgG, 1/50000 in TBS-T) were obtained from Vector Laboratories.
(§2) Cell culture and treatment. The human neuroblastoma cell line SY5Y-APP^695WT was maintained in Dulbecco's modified Eagle medium (DMEM, high glucose, pyruvate—GIBCO by Life Technologies) supplemented with 10% foetal bovine serum, 2 mM L-glutamine, 1 mM non-essential amino acids and penicillin/streptomycin (GIBCO by Life Technologies) at 37° C. in a 5% CO2 humidified incubator. SY5Y-APP^695WT cells were maintained in 75 cm^2 culture flasks (Falcon) with supplemented DMEM medium until they reached 80% of confluence 24 h before treatment.
(§3) For drug treatment, cells were plated at a rate of 5·10^5 cells per well into 12-well plates (Falcon) and cultured with 1 mL supplemented DMEM cell medium for 24 h before drug exposure. The following day, cell medium was replaced with fresh medium containing drugs diluted at the indicated concentrations. Cells were treated for 24 h. At the end of treatments, the cell medium was collected and kept at −80° C. until use for dosage. Then, cells were rinsed once with PBS and extracted in 100 μL of Laemmli buffer (10 mM Tris, 20% glycerol and 2% Sodium dodecyl sulfate) using a cell-scraper. The cell lysate was further sonicated (30 pulses of 0.5 s, 60 Hz) for 5 min. Total protein concentration was determined using the Pierce BCA Protein Assay Kit (Thermo scientific) according to the manufacturer's instructions. Samples were stored at −80° C. until analysis.
(§4) Western Blot Analysis. Cell protein lysates were prepared for western-blot analysis by diluting the sample with 1 volume of NuPAGE® lithium dodecyl sulfate (LDS) 2× sample buffer supplemented with 20% NuPAGE® sample reducing agents (Invitrogen). Samples were heat 10 min at 100° C. 10 μg of total proteins per well were loaded onto a precast 4-12% Criterion XT Bis-Tris polyacrylamide gel (Bio-Rad) and electrophoresis was achieved after applying a tension of 150 V during 90 min using a Criterion electrophoresis Cell with the NuPAGE® MOPS SDS running buffer (1×). Proteins were transferred to a nitrocellulose membrane of […] pore size (G&E Healthcare) using the Criterion blotting system and applying a tension of 100 V for 45 min. To resolve proteins of low molecular weights such as carboxy-terminal fragments of APP, 12% Criterion XT Bis-Tris polyacrylamide gels (Bio-Rad) were used and electrophoresis was performed during 70 min at 150 V in a NuPAGE® MES SDS running buffer (1×). Proteins were transferred to a nitrocellulose membrane of 0.2 μm pore size (G&E Healthcare) at 100 V for 40 min. Molecular weights calibration was achieved using molecular weight markers (Novex and Magic Marks, Life Technologies). Protein transfer and quality were determined by a reversible Ponceau Red coloration (0.2% Xylidine Ponceau Red and 3% Trichloroacetic acid). Membranes were then blocked in 25 mM Tris-HCl pH 8.0, 150 mM NaCl, 0.1% Tween-20 (v/v) (TBS-T) and 5% (w/v) of skimmed milk (TBS-M) or 5% (w/v) of bovine serum albumin (TBS-BSA) depending on the antibody during 1 h. Membrane was rinsed three-times 10 min in TBS-T before incubation with the primary antibody overnight at 4° C. Membrane was rinsed 3 times 10 min with TBS-T and then incubated with the secondary antibody for 45 min at room temperature (RT). […] Quantifications of protein expression levels were performed with ImageJ Software (NIH). […]

[2] = system: AICD; test: AICD by Western blot in SY5Y-APP695WT cells; assay type: cell-based, human; settings: AICD increase compared to chloroquine ([AICD]compound/[AICD]CQ) at 3 μM; mean of at least three experiments
Description: as §1, §2, §3, §4

[3] = system: Aβ1-40 peptide secretion; test: Quantification of secreted Aβ1-40 by ELISA in SY5Y-APP695WT cells; assay type: cell-based; settings: Homo sapiens; concentration inhibiting 50% of Aβ1-40 peptide secretion in SY5Y cells; 24 h treatment; mean ± SD of at least two experiments in triplicate
Procedure: (§5) Cell culture and treatment. The human neuroblastoma cell line […] was maintained in Dulbecco's modified Eagle medium (DMEM, high glucose, pyruvate-GIBCO by Life Technologies) supplemented with 10% foetal bovine serum, 2 mM L-glutamine, 1 mM non-essential amino acids and penicillin/streptomycin (GIBCO by Life Technologies) at 37° C. in a 5% CO2 humidified incubator. […] cells were maintained in 75 cm^2 culture flasks (Falcon) with supplemented DMEM medium until they reached 80% of confluence 24 h before treatment. For compounds treatment, a 10 mM stock solution was diluted in freshly supplemented DMEM medium to obtain the precise final concentration of drug. Bafilomycin A1 (BafA1), the vacuolar […] type H+ ATPase inhibitor, was purchased from Merck Millipore and was used at a final dilution of 100 nM. For drug treatment, cells were plated at a rate of 5·10^5 cells per well into 12-well plates (Falcon) and cultured with 1 mL supplemented DMEM cell medium for 24 h before drug exposure. The following day, cell medium was replaced with fresh medium containing drugs diluted at the indicated concentrations. Cells were treated for 24 h. At the end of treatments, the cell medium was collected and kept at -80° C. until use for dosage. Then, cells were rinsed once with PBS and extracted in 100 μL of Laemmli buffer (10 mM Tris, 20% glycerol and 2% Sodium dodecyl sulfate) using a cell-scraper. The cell lysate was further sonicated (30 pulses of 0.5 s, 60 Hz) for 5 min. Total protein concentration was determined using the Pierce BCA Protein Assay Kit (Thermo scientific) according to the manufacturer's instructions. Samples were stored at -80° C. until analysis. Quantification of secreted Aβ1-40/1-42 and sAPPα/sAPPβ. Conditioned media of […] collected at the end of treatments were centrifuged at 1000 g for 5 min to eliminate cells debris. Aβ1-40 and Aβ1-42 peptide concentrations in […] were determined using amyloid-beta 40 and 42 Human ELISA kits (Invitrogen) according to the manufacturer's instructions after 1:10 and 1:2 dilutions of supernatants in ELISA buffer, respectively. sAPPα and sAPPβ concentrations in ng/mL were determined using the sAPPα/sAPPβ kit (Meso Scale Diagnostics, MSD®) according to the manufacturer's instructions. Compounds of the invention (compounds 24-37, 41, 44 and 51-58) were evaluated for their ability to modulate APP processing on SY5Y human neuroblastoma cell line stably expressing the neuronal isoform of human wild-type APP695 (SYSY-APPwt). Aβ levels (Aβ1-40 and Aβ1-42) after treatment with reference and tested compounds were measured by ELISA (Table 2). […] APP carboxy-terminal fragments (αCTFs and AICD) were measured by Western blot and quantified. The effect of reference and tested compounds on αCTFs and AICD are expressed as the intensity of corresponding western-blot bands resulting from the secretase cleavages.

[4] = system: Aβ1-42 peptide secretion; test: Quantification of secreted Aβ1-42 by ELISA in SY5Y-APP695WT cells; assay type: cell-based; settings: Homo sapiens; concentration inhibiting 50% of Aβ1-42 peptide secretion in SY5Y cells; 24 h treatment; mean ± SD of at least two experiments in triplicate
Procedure: as §5

| SMILES | IC50 [3] | IC50 [4] | CTFα vs CQ (3 μM) [1] | AICD vs CQ (3 μM) [2] |
| --- | --- | --- | --- | --- |
| CCN(CC)CCCC(C)Nc1ccnc2cc(Cl)ccc12 (stereo not shown) [CQ, chloroquine, reference compound] | – | – | 1 | 1 |
| c1cc(-c2ccc(NCCCN3CCCCC3)c(OCCN3CCCCC3)c2)ccc1CN1CCCCC1 [Compound 24, 2-[2-(Piperidin-1-yl)ethoxy]-N-[3-(piperidin-1-yl)propyl]-4-[4-(piperidin-1-ylmethyl)phenyl]aniline] | 2100 ± 600 nM | 3300 ± 2100 nM | 2.6 | 2.5 |
| c1cc(CN2CCCCC2)cc(-c2ccc(NCCCN3CCCCC3)c(OCCN3CCCCC3)c2)c1 [Compound 26, 2-[2-(1-piperidyl)ethoxy]-4-[3-(1-piperidylmethyl)phenyl]-N-[3-(1-piperidyl)propyl]aniline] | 4300 ± 700 nM | 4800 ± 600 nM | 3.3 | 2.6 |
| c1ccc(-c2ccc(NCCCN3CCCCC3)c(OCCN3CCCCC3)c2)c(CN2CCCCC2)c1 [Compound 27, 2-[2-(Piperidin-1-yl)ethoxy]-N-[3-(piperidin-1-yl)propyl]-4-[2-(piperidin-1-ylmethyl)phenyl]aniline] | 2600 ± 100 nM | 4100 ± 1300 nM | 4.3 | 2.7 |
| CN(C)Cc1ccccc1-c1ccc(NCCN2CCCCC2)c(OCCCCN2CCCCC2)c1 [Compound 35, 2′-((Dimethylamino)methyl)-3-(4-(piperidin-1-yl)butoxy)-N-(2-(piperidin-1-yl)ethyl)-[1,1′-biphenyl]-4-amine] | 1600 ± 100 nM | 1600 ± 300 nM | 4.4 | 4.8 |
| CN1CCN(Cc2ccn(-c3ccc(NCCCN4CCCCC4)c(OCCN4CCCCC4)c3)c2)CC1 [Compound 54, 4-(3-[(4-Methylpiperazin-1-yl)methyl]-1H-pyrrol-1-yl)-2-[2-(piperidin-1-yl)ethoxy]-N-[3(piperidin-1-yl)propyl]aniline] | 8300 ± 4000 nM | 12100 ± 7800 nM | – | – |

Now from value to compound, other results behind:

| IC50 [3] | IC50 [4] | SMILES | CTFα vs CQ (3 μM) [1] | AICD vs CQ (3 μM) [2] |
| --- | --- | --- | --- | --- |
| 1500 ± 100 nM | 1700 ± 400 nM | CN(C)Cc1ccc(-c2ccc(NCCCN3CCCCC3)c(OCCN3CCCCC3)c2)cc1 [Compound 25, 4-(4-[(Dimethylamino)methyl]phenyl)-2-[2-(piperidin-1-yl)ethoxy]-N-[3-(piperidin-1-yl)propyl]aniline] | 2.1 | 2.5 |
| 2800 ± 1200 nM | 4200 ± 1500 nM | c1ccc(-c2ccc(NCCCN3CCCCC3)c(OCCN3CCCCC3)c2)c(CN2CCOCC2)c1 [Compound 28, 4-[2-(Morpholin-4-ylmethyl)phenyl]-2-[2-(piperidin-1-yl)ethoxy]-N-[3-(piperidin-1-yl)propyl]aniline] | 3.1 | 1.7 |
| 2600 ± 200 nM | 2700 ± 800 nM | CN1CCN(Cc2ccccc2-c2ccc(NCCCN3CCCCC3)c(OCCN3CCCCC3)c2)CC1 [Compound 29, 4-(2-[(4-Methylpiperazin-1-yl)methyl]phenyl)-2-[2-(piperidin-1-yl)ethoxy]-N-[3-(piperidin-1-yl)propyl]aniline] | 5.1 | 3.7 |
| 2100 ± 300 nM | 2000 ± 100 nM | CN(C)Cc1ccccc1-c1ccc(NCCCN2CCCCC2)c(OCCCN2CCCCC2)c1 [Compound 32, 2′-((Dimethylamino)methyl)-3-(3-(piperidin-1-yl)propoxy)-N-(3-(piperidin-1-yl)propyl)-[1,1′-biphenyl]-4-amine] | 4.5 | 5.1 |
| 1400 ± 500 nM | 1200 ± 600 nM | CN(C)Cc1ccccc1-c1ccc(NCCN2CCCCC2)c(OCCN2CCCCC2)c1 [Compound 33, 2′-((Dimethylamino)methyl)-3-(2-(piperidin-1-yl)ethoxy)-N-(2-(piperidin-1-yl)ethyl)-[1,1′-biphenyl]-4-amine] | 5.0 | 4.8 |
| 2000 ± 200 nM | 1800 ± 700 nM | CN(C)Cc1ccccc1-c1ccc(NCCN2CCCCC2)c(OCCCN2CCCCC2)c1 [Compound 34, 2′-((Dimethylamino)methyl)-N-(2-(piperidin-1-yl)ethyl)-3-(3-(piperidin-1-yl)propoxy)-[1,1′-biphenyl]-4-amine] | 4.5 | 3.4 |
| 1700 ± 300 nM | 1600 ± 800 nM | CN(C)Cc1ccccc1-c1ccc(NCCCCN2CCCCC2)c(OCCN2CCCCC2)c1 [Compound 36, 2′-((Dimethylamino)methyl)-N-(4-(piperidin-1-yl)butyl)-3-(2-(piperidin-1-yl)ethoxy)-[1,1′-biphenyl]-4-amine] | 4.2 | 3.0 |
| 5200 ± 100 nM | 4000 ± 400 nM | c1ccc(-c2ccc(NCCCN3CCCCC3)c(OCCN3CCCCC3)c2)cc1 [Compound 37, 3-(2-(Piperidin-1-yl)ethoxy)-N-(3-(piperidin-1-yl)propyl)-[1,1′-biphenyl]-4-amine] | 2.4 | 2.1 |
